# Assay results reported in patent US5714496A, “Quinuclidine derivatives as squalene synthase inhibitors” (Zeneca Limited, priority 1992, dated 1998).
# What was measured:
# [1] = tested on: squalene synthase (rat liver microsomal protein); experiment: Inhibition of squalene synthase (squalene formation from tritiated farnesyl pyrophosphate); type: biochemical; conditions: at 2.5 μM; rat liver microsomes, 20 μM [3H]-farnesyl pyrophosphate, 15 min, 37° C.
# Procedure: (a) Inhibition of Squalene synthase
# In this test, the ability of a compound to prevent the formation of squalene from a radioactive substrate (tritiated farnesyl pyrophosphate) is assessed.
# The test compound is incubated at a concentration of 25 micromolar in 200 μl of a buffered solution containing potassium phosphate (50 mM), MgCl2 (4.95 mM), KF (9.9 mM), NADPH (0.9 mM) and rat liver microsomal protein (20 μg). Rat liver microsomes are prepared by the method described in published European Patent Application No. 324,421 and stored in liquid nitrogen prior to assay. Assay vials are kept at 37° C. throughout the incubation.
# The reaction is started with the addition of the substrate (1-[^3 H]-farnesyl pyrophosphate), final concentration 20 μM, and stopped after 15 minutes reaction time with the addition of 50 μl of 4% KOH. The reaction products are separated from unreacted substrate after application to a C-18 octadecyl 1 ccBond column (Analytichem Int product No. 617101). An aqueous fraction is eluted with 250 μl of 0.1M KOH. Squalene is then eluted with 1.0 ml 10% ethylacetate in hexane and radioactivity determined. The difference in radioactivity in the presence and absence of the test compound is used to determine the level of inhibition. […] The IC50 can then be determined from a plot of percentage inhibition against concentration of test compound.
# [2] = tested on: de novo hepatic cholesterol synthesis from 14C-acetate; experiment: Acute rat cholesterol synthesis assay; type: in vivo; conditions: plasma cholesterol specific radioactivity after ip [2-14C]-acetate given 1 hour after the compound
# Procedure: (b) Acute rat cholesterol synthesis assay.
# This is an acute in vivo test in the rat to measure de novo hepatic cholesterol synthesis from exogenously administered ^14 C-acetate.
# Female rats (35-55 g) are housed in reverse lighting conditions (red light from 0200 h-1400 h) for a period of about 2 weeks prior to test. Animals are allowed free access to chow and drinking water throughout this period. At test, animals should weigh 125-150 g.
# Test compounds may be administered by oral gavage, dissolved or suspended in 0.5% polysorbate, or by ip or iv dosing. Control animals receive vehicle alone. After 1 hour the rats are injected ip with 25 μCi [2-^14 C]-acetate (NEN DUPONT, specific activity, 45-60 mCi/mmol NEC-085H, or AMERSHAM specific activity, 50-60 mCi/mmol CFA 14) in a volume of 0.25 ml saline (100 μCi/ml). After a further hour, rats are terminally anaesthetised with halothane and a blood sample obtained from the abdominal vena cava.
# 1 ml of plasma is lyophilised and then saponified in 2 ml ethanolic KOH (1 part 33% KOH, 9 parts ethanol) at 75° C. for 2 hours. After addition of an equal quantity of water, non-saponifiable lipids are extracted with two 5 ml volumes of hexane. The hexane extracts are evaporated to dryness and the residues dissolved in ethanol to determine cholesterol specific radioactivity. ED50 values can be determined in the standard way.
smiles,measurement,setting,value
"OC1(C#Cc2ccc(-c3ccccn3)cc2)CN2CCC1CC2 (centres unmarked) [Example 2, 3-[2-(4-[2-pyridyl]phenyl)ethynyl]-3-hydroxyquinuclidine]",inhibition of squalene synthase,[1],about 98%
same,ED50,[2],8 mg/kg
